These results are taken from publication PMC3912015, “Synthetic Multivalent Antifungal Peptides Effective against Fungi” (PLoS ONE, 2014).

For one data set, the system named is C. albicans ATCC10231. Briefly: microbe, parasite or virus in culture. Type of data set: cell-based. The note with it: ATCC10231, 48 h; read-out: MIC in µM against Ca 10231. As to the method: (§1) The yeast strains were cultivated and suspended in Sabouraud’s Dextrose (SD) broth diluted to one sixth at a starting OD600 = ∼0.08 in a flat-bottomed microtitre plate. A serial dilution of peptide in the same broth was mixed with the inoculum to give a final peptide concentration of 0.4–22 µM. The antifungal activity was assessed by monitoring the OD600 in cycles of 30 minutes and an orbital shaking at 100 rpm using an Infinite M200 microplate reader (Tecan Group Ltd., Switzerland) for 24/48 h at 37°C. Cultures without peptides were used as positive controls and broth alone or with 22 µM peptide served as negative controls. The minimum concentration required for complete inhibition was assessed by both visible observations as well as by measuring the OD600 and taken as the MIC. Each experiment was repeated in triplicates. For studying the effects of metal ions, SD broth was adjusted with appropriate concentrations of salts to yield a final concentration of 100 and 135 mM for NaCl and KCl and 0.5–2 mM for CaCl2 and MgCl2. MIC determinations were carried out as described above. C. albicans ATCC10231 cells and salts in broth were taken as a positive control. Salts alone (NaCl, KCl, and CaCl2 and MgCl2) in broth or with 22 µM peptide served as a negative control. The effect of 5% human serum on the activities of B4010 against two C. albicans clinical isolates was determined. The human male serum was centrifuged at 13,000 rpm for 10 mins in order to remove the lipids and the supernatant was collected. The MIC values against clinical isolates of C. albicans 2672R and C. albicans 1976R were determined both in standard medium (SD broth) as well as in standard medium containing 5% serum supernatant as before.

The next data set has as its system C. albicans ATCC2091. Briefly: microbe, parasite or virus in culture. Type of data set: cell-based. The note with it: ATCC2091, 48 h. As to the method: as §1
For another data set, the system named is C. albicans ATCC24433. Briefly: microbe, parasite or virus in culture. It is filed as cell-based. The note with it: ATCC24433, 48 h. On the procedure: as §1
Another data set concerns C. albicans DF1976R. The data set can be described thus: microbe, parasite or virus in culture. Type of data set: cell-based. The settings on record: DF1976R, 48 h; read-out: MIC in µM against Ca DF1976R. As to the method: as §1
The subject of the next data set is C. albicans DF2672R. The data set can be described thus: microbe, parasite or virus in culture. It is filed as cell-based. The settings on record: DF2672R, 48 h; read-out: MIC in µM against Ca 2672R. As to the method:
as §1

The subject of another data set is F. solani DM3782. Briefly: microbe, parasite or virus in culture. Type of data set: cell-based. The note with it: 48 h.
The subject of another data set is F. solani DF1500. The data set can be described thus: microbe, parasite or virus in culture. It is filed as cell-based. The settings on record: 48 h.
The nature of data set [1]: Intact peptide after trypsin incubation (mass spectrometry). The note with it: 6 h incubation with trypsin. Type of data set: in vitro ADME. As to the method:
For all the experiments, unless otherwise stated, C. albicans ATCC 10231 strain was used. B4010 (1 mg/mL) was incubated with trypsin (enzyme:peptide ratio 1∶100) at 37°C. 20 µL aliquot of this mixture was withdrawn at various time intervals (0.5, 1, 2, 4 and 6 h) and mixed with 1 µL of trypsin inhibitor. The antifungal activity of the peptide was determined by adding this mixture to 180 µL of inoculum and monitoring the growth at OD600 for 24 h. Similar experiments performed in the presence of trypsin/trypsin inhibitor (without B4010) were used as a positive control. For assessing the antifungal activity in TF, the peptide was dissolved in freshly collected rabbit TF and incubated at 37°C for 6 h. After incubation, an equal volume of an overnight culture of C. albicans (∼10^6 CFU/mL) was mixed with peptides in tear fluid and incubated at 37°C for 24 h. The final concentrations of the peptide were at 4.4, 8.8 and 22 µM. A 100 µL aliquot of serial dilutions (10^2 or 10^3 times) of this mixture were inoculated on a SD agar plate and then incubated for 48 h at 37°C. Culture alone and culture with 50% tear fluid served as the positive control. The data was expressed in % killing with respect to culture without tear fluid.
Supplementary file pone.0087730.s002.tif: Figure S2 Positive charge electrospray ionization mass spectrometry of B4010 after incubation with trypsin (enzyme:B4010 = 1∶100). […]

A short description of another data set: Haemolytic assay. The settings on record: rabbit red blood cells, 440 µM, 4% rabbit erythrocytes, read-out: haemolysis. Type of data set: cell-based. On the procedure:
Haemolytic activity of peptides and antifungal drugs were determined against rabbit red blood cells. Briefly, serial dilution of peptides/antifungals in PBS was mixed with rRBC (final concentration 4% v/v), incubated at 37°C for 1 h and centrifuged at 3000 rpm for 10 minutes. The release of hemoglobin in the supernatant was monitored by measuring the hemoglobin absorbance at 576 nm. The readings from cell suspension in PBS (without any additives) or 1% Triton-X100 were used as 0% or 100% haemolysis.

Data set [2] is classed as biochemical. As to the method: Small unilamellar vesicles (SUVs) were prepared using PC/PE/PI or PS lipids (5∶2.5∶2.5) containing 15 wt% ergosterol or PC/Cholesterol (10∶1). For the preparation of PC/PE/PI or PS/Erg SUV, the lipids were dissolved in chloroform/methanol (2∶1, v/v) in a glass tube. Ergosterol was dissolved in same solvent and added to lipid mixture to make final ergosterol content of 15 wt%. The Lipid-ergosterol mixture was dried using nitrogen gas to form lipid layer. The film was hydrated in a buffer containing 20 mM PBS (pH 7), vortexed and sonicated. Each cycle of sonication (5 sec, 40°C) was followed by freezing in liquid nitrogen and thawing on a water bath kept at 37°C. The procedure was repeated 5–6 times until an optically clear dispersion appeared. The SUV was divided into two parts. To the first part 50 mM calcein was added and incubated for 1 h. The excess calcein was removed by injecting 100 µL of the calcien-loaded SUV’s into a Ultrahydrogel™ 250 (7.8 mm × 300 mm) column equilibrated with 20 mM PBS (pH 7.0) and eluted isochratically at a flow rate of 1 mL/min for 1.5 column volumes. The calcein-loaded liposomes were mixed with calcein-free liposome (1∶1) to adjust final liposome concentration. Peptide concentration was added to obtain 1∶30 or 1∶15 peptide:liposome ratio. Changes in the fluorescence signal after addition of peptide or Triton X-100 was measured on a PTI spectrofluorometer, using an excitation wavelength of 480 nm and emission wavelength of 512 nm. The Percentage calcein released at each time point was calculated using the equation, [drawing 1]
Where A0 is the observed fluorescence intensity upon addition of peptides, Amin is the average intensity at the baseline (before peptide addition), Amax is the average intensity at the saturation phase after adding 1% Triton X-100. Similar protocol was followed for the preparation of PC/Cholesterol SUVs.

Values after ≈ are worked out from the molar mass of the structure shown. Where two headings read alike, the source gives them in different places. Bridge positions count the residues as written; N and C are the ends. Peptide text beside a SMILES is read from it. I, II: the chains in the order shown.

On to `CC(C)[C@H](NC(=O)[C@H](CCCCN)NC(=O)[C@H](CCCNC(=N)N)NC(=O)CNC(=O)[C@@H](N)CCCNC(=N)N)C(=O)N[C@H](C(=O)N[C@@H](CCCNC(=N)N)C(=O)N[C@@H](CCCNC(=N)N)C(=O)NCCCC[C@H](NC(=O)[C@H](CCCNC(=N)N)NC(=O)[C@H](CCCNC(=N)N)NC(=O)[C@@H](NC(=O)[C@@H](NC(=O)[C@H](CCCCN)NC(=O)[C@H](CCCNC(=N)N)NC(=O)CNC(=O)[C@@H](N)CCCNC(=N)N)C(C)C)C(C)C)C(=O)NCCCC[C@H](NC(=O)[C@H](CCCCNC(=O)[C@H](CCCNC(=N)N)NC(=O)[C@H](CCCNC(=N)N)NC(=O)[C@@H](NC(=O)[C@@H](NC(=O)[C@H](CCCCN)NC(=O)[C@H](CCCNC(=N)N)NC(=O)CNC(=O)[C@@H](N)CCCNC(=N)N)C(C)C)C(C)C)NC(=O)[C@H](CCCNC(=N)N)NC(=O)[C@H](CCCNC(=N)N)NC(=O)[C@@H](NC(=O)[C@@H](NC(=O)[C@H](CCCCN)NC(=O)[C@H](CCCNC(=N)N)NC(=O)CNC(=O)[C@@H](N)CCCNC(=N)N)C(C)C)C(C)C)C(=O)N[C@@H](CCCCN)C(=O)O)C(C)C` [B4010] (I: H-RGRKVVRRKKK-OH / II: H-RGRKVVRRK / III: H-RGRKVVRR / IV: H-RGRKVVRR; amide I:9-IV:C, I:10-II:C, II:9-III:C; N-terminus and C-terminus assumed), for which the MIC was 1.4 µM (≈ 6.39 µg/mL) in the data set on C. albicans ATCC10231; 0.7 µM (≈ 3.19 µg/mL) with C. albicans ATCC2091 (read-out: MIC); 0.7 µM (≈ 3.19 µg/mL) in the data set on C. albicans ATCC2091 (read-out: MIC in µM against Ca 2091); 1.4 µM (≈ 6.39 µg/mL) in the data set on C. albicans ATCC24433 (read-out: MIC); 1.4 µM (≈ 6.39 µg/mL) in the data set on C. albicans ATCC24433 (read-out: MIC in µM against Ca 24433); 0.37 µM (≈ 1.69 µg/mL) in the data set on C. albicans DF1976R. In addition, the results for the MIC with C. albicans DF2672R, in the data set on F. solani DM3782 and against F. solani DF1500 were 0.37 µM (≈ 1.69 µg/mL), 1.4 µM (≈ 6.39 µg/mL) and 1.4 µM (≈ 6.39 µg/mL), respectively. For the same molecule, the share remaining – broadly, what is left of the initial amount, in per cent – at 6 h, 1 mg/mL in [1] is roughly 20%. The hemolysis at 1 h, 440 µM in the data set “Haemolytic assay” is less than 1%. In [2], the “% Calcein released from PC/PE/PS/Erg” value is on record as roughly 68%. The “dye (calcein) release” value in [2] is roughly 46%.
